Assay results: article PMC1660542, “Structure-based discovery of inhibitors of the YycG histidine kinase: New chemical leads to combat Staphylococcus epidermidis infections” (BMC Microbiology, 2006)
Converted amounts (≈) assume the structure as drawn.

Tested on: S. epidermidis ATCC12228
Assay: MIC assay (broth dilution in tubes, CLSI)
Type: cell-based, Staphylococcus epidermidis
Conditions: Staphylococcus epidermidis, ATCC12228; conventional antibiotics used in the hemolysis assay; strain not printed at the place; read-out: MIC
From the text: Staphylococcus epidermidis ATCC12228 and RP62A strains were purchased from the American Type Culture Collection (ATCC, Manassas, USA). Staphylococcus aureus ATCC29213, Escherichia coli ATCC25922 and Pseudomonas aeruginosa ATCC27853 were kindly provided by Dr. Bijie Hu at Zhongshan Hospital (Shanghai, China). S. epidermidis strains se527, se886, se847, seG203, Streptococcus pyogenes strain 144, and Streptococcus mutans strain 128 were all clinical isolates from Zhongshan Hospital and Huashan Hospital (Shanghai, China). If not stated otherwise, S. epidermidis and S. aureus strains were grown at 37°C in tryptic soy broth (TSB, Oxoid) containing 0.25% glucose, E. coli and P. aeruginosa strains were grown at 37°C in Luria-Bertani (LB, Oxoid).
MIC assays for the antibacterial activities of the compounds were performed according to the broth micro-dilution (in tubes) method of the Clinical and Laboratory Standards Institute (CLSI) of America. The Minimal Bactericidal Concentration (MBC) was obtained by subculturing 100 μl from each negative (no visible bacterial growth) tube from the MIC assay, onto substance-free Mueller-Hinton agar plates. The plates were incubated at 37°C for 24 hours, and the MBC was defined as the lowest concentration of substance which produced subcultures growing no more than five colonies on each plate.

## CN(C)[C@@H]1C(O)=C(C(N)=O)C(=O)[C@@]2(O)C(O)=C3C(=O)c4c(O)cccc4[C@@](C)(O)[C@H]3C[C@@H]12 [Tet, tetracycline, reference compound]
  MIC: 0.25 µg/mL (≈ 0.563 µM)
